Measured values as given in publication PMC5812345 (Chemistry (Weinheim an der Bergstrasse, Germany), 2017).

Tested on: U87-stb-CXCR4 cells
Assay: In vitro binding/uptake of 64Cu-labeled cyclotides to U87-stb-CXCR4 cells
Type: cell-based, human
Settings: inhibitor at 10 μM

c1cc(CN2CCCNCCNCCCNCC2)ccc1CN1CCCNCCNCCCNCC1 [AMD3100]
Reduction in bound [^64Cu]MCo-CVX-6D in the presence of excess non-radioactive inhibitor: ≈ 30%
